Test results from patent US11377659B2, “Short hairpin RNA (shRNA734) and use of same to positively select and eliminate genetically modified cells” (THE REGENTS OF THE UNIVERSITY OF CALIFORNIA, priority 2016, dated 2022).

Columns and labels:
[1] = test system: human T-cell line, CD34+ cells and primary peripheral blood mononuclear cells (PBMC); assay: 6TG-mediated positive selection of lentiviral vector-transduced cells in vitro; format: cell-based; conditions: cultured in the presence of 6TG
Description: FIG. 4. Lentiviral vector delivery of HPRT shRNA results in efficient selections of HPRT knockdown by 6TG. Selection of HPRT knockdown Molt4-CCR5, PBMC and CD34+ cell by 6TG. The shRNA vector and control vector transduced cells were cultured with or without 6TG.
The potent and non-toxic HPRT shRNA enables 6TG-mediated positive selection of lentiviral vector-transduced human T-cell line, CD34+ cells and primary peripheral blood mononuclear cells (PBMC) in vitro. A lentivirus vector was utilized to deliver sh734 and to stably knockdown HPRT in human T cell lines, primary peripheral blood mononuclear cells and CD34+ hematopoietic stem/progenitor cells.
Furthermore, the invention provides a combinatorial anti-HIV lentiviral vector expressing the HIV fusion inhibitor C46, and shRNAs for CCR5 and HPRT. […] Methotrexate (MTX) has been used to negatively select the transduced cells.
(§1) The shRNA vector and control vector transduced cells were cultured with or without 6TG. […] Whole cell lysates were analyzed by Western blot after transduction at the indicated time points.

[2] = test system: hypoxanthine guanine phosphoribosyltransferase (HPRT); assay: HPRT knockdown in vector transduced cells (Western blot); format: cell-based, human; conditions: lentiviral vector transduced cells
Description: FIG. 6. HPRT knockdown in vector transduced cells. Whole cell lysates were analyzed by Western blot after transduction at the indicated time points.
as §1

[3] = humans, estimated; cited from earlier work
[4] = test system: Molt4CCR5, PBMC and CD34+ cells; assay: MTX mediated negative selection of HPRT knock down cells; format: cell-based, human; conditions: in vitro, 10 μM MTX; % EGFP monitored
From the text: FIG. 8. Line graphs showing MTX mediated inhibition of Dihydrofolate reductase (DHFR) induced cell death in HPRT knock down cells.
Negative selection of HPRT knock down cells by MTX is illustrated in FIG. 7, which presents a schematic illustration of MTX mediated inhibition of Dihydrofolate reductase (DHFR) induced cell death in HPRT knock down cells. […] The de novo synthesis occurs through a multi-step process and requires the contribution of four aminoacids, one PRPP, two folates and three ATP to synthesize an inosine monophosphate (IMP) molecule. HPRT catalyzes the salvage synthesis of inosine monophosphate (IMP) and guanosine monophosphate (GMP) from the purine bases hypoxanthine and guanine respectively, utilizing PRPP as a co-substrate. The HPRT defect results in the accumulation of its substrates, hypoxanthine and guanine, which are converted into uric acid by means of xanthine oxidase. Elevated APRT activity may also contribute to purine overproduction.
Molt4CCR5 (A), PBMC (B) and CD34+ (C) cells were transduced with dual shRNA vector. The transduced cells were cultured with or without 10 μM MTX. Cells were monitored for % EGFP and given fresh media containing MTX every 3 days.

sh734: short hairpin RNA directed to human HPRT, coding sequence SEQ ID NO: 1 (DNA AGGATATGCCCTTGACTATTTGTCCGACATAGTCAAGGGCATATCCT; expressed or natural sequence)
positive selection of vector transduced cells by 6TG [1]: positively selected
HPRT knockdown [2]: efficient HPRT knockdown

Nc1nc2nc[nH]c2c(=S)[nH]1 [6TG, 6-thioguanine]
Absorption after oral administration [3]: 30%

CN(Cc1cnc2nc(N)nc(N)c2n1)c1ccc(C(=O)N[C@@H](CCC(=O)O)C(=O)O)cc1 [MTX, methotrexate]
negative selection of HPRT knock down cells by MTX [4]: negatively selected
